Results reported in patent US10660877B2 (BRISTOL-MYERS SQUIBB COMPANY, priority 2016, dated 2020).
Read-outs that look alike come from different tables or passages of the source.

How the values were obtained:
human TLR8 = human TLR8 (Homo sapiens (Human), UniProt Q9NR97); test: TLR8 inhibition reporter assay (HEK-Blue cells, SEAP reporter, R848 stimulation);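 note: compounds tested from 0.05 nM to 50 µM, 22 h at 37 °C, SEAP measured with HEK-Blue Detection, inhibition relative to agonist plus DMSO versus a known inhibitor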
Sequence of human TLR8 (Q9NR97 27-1041): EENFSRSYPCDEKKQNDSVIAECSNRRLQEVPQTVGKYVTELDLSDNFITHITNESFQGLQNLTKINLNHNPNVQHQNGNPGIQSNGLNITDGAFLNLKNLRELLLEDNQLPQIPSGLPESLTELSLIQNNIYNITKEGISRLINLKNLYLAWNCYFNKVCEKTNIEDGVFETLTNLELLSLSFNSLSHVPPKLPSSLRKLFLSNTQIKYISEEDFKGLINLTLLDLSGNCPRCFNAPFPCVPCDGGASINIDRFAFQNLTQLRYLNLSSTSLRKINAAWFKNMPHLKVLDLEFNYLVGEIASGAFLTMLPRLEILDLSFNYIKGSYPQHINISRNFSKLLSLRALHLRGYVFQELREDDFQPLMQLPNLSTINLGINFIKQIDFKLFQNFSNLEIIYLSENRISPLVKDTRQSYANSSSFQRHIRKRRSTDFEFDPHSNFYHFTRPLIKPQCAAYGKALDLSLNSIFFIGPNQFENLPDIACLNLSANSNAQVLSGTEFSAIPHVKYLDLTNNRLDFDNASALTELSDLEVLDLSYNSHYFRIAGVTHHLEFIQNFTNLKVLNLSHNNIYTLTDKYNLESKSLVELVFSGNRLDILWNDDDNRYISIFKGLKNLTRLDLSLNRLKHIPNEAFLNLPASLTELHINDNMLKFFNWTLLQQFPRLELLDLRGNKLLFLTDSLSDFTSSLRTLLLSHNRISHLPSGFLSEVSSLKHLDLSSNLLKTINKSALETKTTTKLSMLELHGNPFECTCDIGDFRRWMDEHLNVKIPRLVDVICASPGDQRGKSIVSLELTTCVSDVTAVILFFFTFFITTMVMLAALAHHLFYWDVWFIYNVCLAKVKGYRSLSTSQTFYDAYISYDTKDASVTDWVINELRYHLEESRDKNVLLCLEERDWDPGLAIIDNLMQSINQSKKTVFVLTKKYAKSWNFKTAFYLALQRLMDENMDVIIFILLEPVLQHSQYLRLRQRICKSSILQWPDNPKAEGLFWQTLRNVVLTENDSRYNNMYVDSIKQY

human TLR9 = human TLR9 (Homo sapiens (Human), UniProt Q9NR96); test: TLR9 inhibition reporter assay (HEK-Blue cells, SEAP reporter, ODN2006 stimulation);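 note: compounds tested over 0.05 nM to 50 µM, 22 h incubation, inhibition taken as SEAP signal drop from agonist plus DMSO wells toward a known inhibitor control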
Sequence of human TLR9 (Q9NR96 26-1032): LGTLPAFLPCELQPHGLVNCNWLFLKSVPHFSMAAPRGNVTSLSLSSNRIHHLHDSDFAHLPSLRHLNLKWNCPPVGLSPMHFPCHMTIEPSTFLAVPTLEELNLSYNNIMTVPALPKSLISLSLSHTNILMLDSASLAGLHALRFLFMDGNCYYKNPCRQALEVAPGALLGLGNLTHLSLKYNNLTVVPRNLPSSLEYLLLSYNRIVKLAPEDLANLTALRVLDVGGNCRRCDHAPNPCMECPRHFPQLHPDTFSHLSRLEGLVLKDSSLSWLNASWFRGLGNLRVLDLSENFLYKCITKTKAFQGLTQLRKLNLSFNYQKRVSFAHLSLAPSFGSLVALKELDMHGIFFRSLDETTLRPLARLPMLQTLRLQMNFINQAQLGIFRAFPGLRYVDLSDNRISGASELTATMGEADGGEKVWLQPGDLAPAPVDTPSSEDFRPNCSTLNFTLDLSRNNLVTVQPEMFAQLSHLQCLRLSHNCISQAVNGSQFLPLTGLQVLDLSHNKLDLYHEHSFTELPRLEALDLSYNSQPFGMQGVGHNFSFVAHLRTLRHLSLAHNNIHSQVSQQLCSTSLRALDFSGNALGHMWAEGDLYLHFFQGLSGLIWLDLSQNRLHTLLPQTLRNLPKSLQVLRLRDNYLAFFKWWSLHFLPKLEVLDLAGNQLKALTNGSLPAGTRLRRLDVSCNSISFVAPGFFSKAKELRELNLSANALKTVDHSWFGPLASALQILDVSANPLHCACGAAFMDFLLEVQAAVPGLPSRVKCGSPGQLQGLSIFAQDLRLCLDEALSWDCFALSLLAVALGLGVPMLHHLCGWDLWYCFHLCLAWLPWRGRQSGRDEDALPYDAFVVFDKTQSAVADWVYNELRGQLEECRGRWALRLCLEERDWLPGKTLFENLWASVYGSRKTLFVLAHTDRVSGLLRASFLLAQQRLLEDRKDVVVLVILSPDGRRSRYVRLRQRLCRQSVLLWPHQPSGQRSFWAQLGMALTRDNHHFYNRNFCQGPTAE

human TLR7 = human TLR7 (Homo sapiens (Human), UniProt Q9NYK1); test: TLR7 inhibition reporter assay (HEK-Blue cells, SEAP reporter, gardiquimod stimulation); assay type: cell-based
Sequence of human TLR7 (Q9NYK1 27-1049): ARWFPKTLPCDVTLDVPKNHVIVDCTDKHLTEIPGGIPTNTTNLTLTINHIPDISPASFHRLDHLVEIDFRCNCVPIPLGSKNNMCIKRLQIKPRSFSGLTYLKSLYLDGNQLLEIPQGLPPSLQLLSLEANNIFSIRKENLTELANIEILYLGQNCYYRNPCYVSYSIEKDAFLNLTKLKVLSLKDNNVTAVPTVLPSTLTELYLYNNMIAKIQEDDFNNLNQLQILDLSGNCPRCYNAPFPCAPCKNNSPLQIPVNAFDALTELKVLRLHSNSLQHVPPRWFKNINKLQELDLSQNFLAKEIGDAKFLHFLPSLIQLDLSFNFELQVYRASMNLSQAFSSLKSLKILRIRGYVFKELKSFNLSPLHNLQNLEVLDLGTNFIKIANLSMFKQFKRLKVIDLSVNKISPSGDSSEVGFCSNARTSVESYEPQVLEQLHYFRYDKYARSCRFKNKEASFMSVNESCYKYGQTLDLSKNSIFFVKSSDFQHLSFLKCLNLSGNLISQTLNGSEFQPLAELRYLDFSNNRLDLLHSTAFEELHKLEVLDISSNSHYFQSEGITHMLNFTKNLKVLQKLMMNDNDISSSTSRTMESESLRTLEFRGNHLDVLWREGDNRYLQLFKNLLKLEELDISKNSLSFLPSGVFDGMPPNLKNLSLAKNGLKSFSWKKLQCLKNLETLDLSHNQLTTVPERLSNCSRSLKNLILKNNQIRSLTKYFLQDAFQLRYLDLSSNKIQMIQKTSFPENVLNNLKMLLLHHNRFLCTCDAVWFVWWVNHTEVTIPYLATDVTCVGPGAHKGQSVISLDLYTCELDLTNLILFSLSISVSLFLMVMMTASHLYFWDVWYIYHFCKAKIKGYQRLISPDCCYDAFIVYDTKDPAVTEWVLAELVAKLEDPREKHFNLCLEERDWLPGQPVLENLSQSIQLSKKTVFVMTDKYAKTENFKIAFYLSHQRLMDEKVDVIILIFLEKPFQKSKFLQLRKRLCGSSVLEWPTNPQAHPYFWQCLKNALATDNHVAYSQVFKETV

[1] = read-out: TLR8 IC50, HEK-Blue cells overexpressing human TLR8, R848 15.9 μM
[2] = read-out: TLR9 IC50, HEK-Blue cells overexpressing human TLR9, ODN2006 5 nM
[3] = HEK-Blue cells overexpressing human TLR7, gardiquimod 7.5 μM
[4] = read-out: TLR8 IC50, HEK-Blue cells, R848 15.9 μM
[5] = read-out: TLR9 IC50, HEK-Blue cells, ODN2006 5 nM
[6] = HEK-Blue cells, gardiquimod 7.5 μM
[7] = TLR8 IC50, HEK-Blue cells overexpressing human TLR8, R848 15.9 μM
[8] = TLR9 IC50, HEK-Blue cells overexpressing human TLR9, ODN2006 5 nM

| Structure (SMILES) | IC50 (human TLR8; [1]) | IC50 (human TLR9; [2]) | IC50 (human TLR7; [3]) | other results |
| --- | --- | --- | --- | --- |
| Cc1cc(-c2[nH]c3ccc(C4CCN(C(=O)[C@H]5CCC[C@@]5(C)N)CC4)cc3c2C(C)C)ccn1 [Example 569, ((1S,2R)-2-amino-2-methylcyclopentyl)(4-(3-isopropyl-2-(2-methylpyridin-4-yl)-1H-indol-5-yl)piperidin-1-yl)methanone] | 15 nM | 912 nM | 14.4 nM |  |
| CNCC(=O)N1CCC(c2ccc3[nH]c(-c4cc(C)ncc4F)c(C(C)C)c3c2)CC1 [Example 621, 1-(4-(2-(5-fluoro-2-methylpyridin-4-yl)-3-isopropyl-1H-indol-5-yl)piperidin-1-yl)-2-(methylamino)ethan-1-one] | 5 nM | 1590 nM | 2.4 nM |  |
| Cc1cc(-c2[nH]c3ccc(C4CCN(C(=O)C(=O)N5CCN(C)CC5)CC4)cc3c2C(C)C)cc(C)n1 [Example 856, 1-(4-(2-(2,6-dimethylpyridin-4-yl)-3-isopropyl-1H-indol-5-yl)piperidin-1-yl)-2-(4-methylpiperazin-1-yl)ethane-1,2-dione] |  |  |  | IC50 (human TLR8; [4]): 30.6 nM; IC50 (human TLR9; [5]): 832 nM; IC50 (human TLR7; [6]): 2.9 nM |
| CCc1c(-c2ccnc(O)c2)[nH]c2ccc(C3CCN(C4CCN(CC(C)C)CC4)CC3)cc12 [Example 765, 4-(3-ethyl-5-(1′-isobutyl-[1,4′-bipiperidin]-4-yl)-1H-indol-2-yl)pyridin-2-ol] | 341 nM | 181 nM | 11000 nM |  |
| Cc1cc(-c2[nH]c3ccc(C4CCN(C(=O)C(=O)NCC5CCNCC5)CC4)cc3c2C(C)C)cc(C)n1 [Example 861, 2-(4-(2-(2,6-dimethylpyridin-4-yl)-3-isopropyl-1H-indol-5-yl)piperidin-1-yl)-2-oxo-N-(piperidin-4-ylmethyl)acetamide] |  |  |  | IC50 (human TLR8; [4]): 59 nM; IC50 (human TLR9; [5]): 3420 nM; IC50 (human TLR7; [6]): 13.5 nM |
| COc1cc(-c2[nH]c3ccc(C4CCNCC4)cc3c2C(C)C)cc(C2CC2)n1 [Example 486, 2-(2-cyclopropyl-6-methoxypyridin-4-yl)-3-isopropyl-5-(piperidin-4-yl)-1H-indole] | 213 nM | 2760 nM | 49 nM |  |
| Cc1cc(-c2[nH]c3ccc(C4CCN(Cc5cnc[nH]5)CC4)cc3c2C(C)C)c(C)cn1 [Example 824, 5-(1-((1H-imidazol-5-yl)methyl)piperidin-4-yl)-2-(2,5-dimethylpyridin-4-yl)-3-isopropyl-1H-indole] |  |  |  | IC50 (human TLR8; TLR8 IC50, HEK-Blue cells, R848 15.9 μM): 1.2 nM; IC50 (human TLR9; TLR9 IC50, HEK-Blue cells, ODN2006 5 nM): 729 nM; IC50 (human TLR7; [6]): 13.8 nM |
| Cc1cc(-c2[nH]c3ccc(C4CCN(CC5CC5)CC4)cc3c2C2CC2)cc(C)n1 [Example 667, 3-cyclopropyl-5-(1-(cyclopropylmethyl)piperidin-4-yl)-2-(2,6-dimethylpyridin-4-yl)-1H-indole] | 32.1 nM | 86 nM | 19 nM |  |
| Cc1cc(-c2[nH]c3ccc(C4CCN(CC(=O)NC5CCCOC5)CC4)cc3c2C(C)C)cc(C)n1 (stereo not drawn) [Example 279, 2-(4-(2-(2,6-dimethylpyridin-4-yl)-3-isopropyl-1H-indol-5-yl)piperidin-1-yl)-N-(tetrahydro-2H-pyran-3-yl)acetamide] | 11 nM | 512 nM | 2.3 nM |  |
| Cc1cc(-c2[nH]c3ccc(C4CCN(Cc5nncn5C)CC4)cc3c2C(C)C)c(C)cn1 [Example 736, 2-(2,5-dimethylpyridin-4-yl)-3-isopropyl-5-(1-((4-methyl-4H-1,2,4-triazol-3-yl)methyl)piperidin-4-yl)-1H-indole] | 6.5 nM | 20100 nM | 42.3 nM |  |
| Cc1cc(-c2[nH]c3ccc(C4CCNCC4(F)F)cc3c2C(C)C)cc(C)n1 (single isomer, unassigned) [Example 489A, 5-(3,3-difluoropiperidin-4-yl)-2-(2,6-dimethylpyridin-4-yl)-3-isopropyl-1H-indole] |  |  | 1.1 nM | IC50 (human TLR8; [7]): 13.9 nM; IC50 (human TLR9; [8]): 849 nM |
| Cc1cc(-c2[nH]c3ccc(C4CCN(C5CCOC5)CC4)cc3c2C(C)C)c(C)cn1 (stereo not drawn) [Example 728, 2-(2,5-dimethylpyridin-4-yl)-3-isopropyl-5-(1-(tetrahydrofuran-3-yl)piperidin-4-yl)-1H-indole] | 1.1 nM | 1340 nM | 6.7 nM |  |
| CCc1c(-c2ccnc(C)c2)[nH]c2ccc(C3CCN(C[C@@H]4CCCN4C(C)C)CC3)cc12 [Example 741, (S)-3-ethyl-5-(1-((1-isopropylpyrrolidin-2-yl)methyl)piperidin-4-yl)-2-(2-methylpyridin-4-yl)-1H-indole] | 32.7 nM | 213 nM | 172 nM |  |
| Cc1cnc(N)cc1-c1[nH]c2ccc(C3CCNCC3)cc2c1C(C)C [Example 9, 4-(3-isopropyl-5-(piperidin-4-yl)-1H-indol-2-yl)-5-methylpyridin-2-amine] | 22.1 nM | 562 nM | 75.1 nM |  |
| CCc1c(-c2ccnc(OC)c2)[nH]c2ccc(C3CCN(CCNC)CC3)cc12 [Example 778, 2-(4-(3-ethyl-2-(2-methoxypyridin-4-yl)-1H-indol-5-yl)piperidin-1-yl)-N-methylethan-1-amine] | 100 nM | 1940 nM | 330 nM |  |
| CCc1c(-c2ccnc(C)c2)[nH]c2ccc(C3CCN(C(=O)NC4CCNCC4)CC3)cc12 [Example 845, 4-(3-ethyl-2-(2-methylpyridin-4-yl)-1H-indol-5-yl)-N-(piperidin-4-yl)piperidine-1-carboxamide] |  |  |  | IC50 (human TLR8; [4]): 92.9 nM; IC50 (human TLR9; [5]): 1170 nM; IC50 (human TLR7; [6]): 148 nM |
| CC(C)c1c(-c2ccnc(C#N)c2C(F)(F)F)[nH]c2ccc(C3CCNCC3)cc12 [Example 33, 4-(3-isopropyl-5-(piperidin-4-yl)-1H-indol-2-yl)-3-(trifluoromethyl)picolinonitrile] | 230 nM | 5650 nM | 2070 nM |  |
| Cc1cc(-c2[nH]c3ccc(C4CCN(C(=O)Cn5nnnc5C)CC4)cc3c2C(C)C)cc(C)n1 [Example 159, 1-(4-(2-(2,6-dimethylpyridin-4-yl)-3-isopropyl-1H-indol-5-yl)piperidin-1-yl)-2-(5-methyl-1H-tetrazol-1-yl)ethan-1-one] | 47.2 nM | 24400 nM | 4.8 nM |  |
| CC(=O)Nc1cnc(C)cc1-c1[nH]c2ccc(C3CCNCC3)cc2c1C(C)C [Example 34, N-(4-(3-isopropyl-5-(piperidin-4-yl)-1H-indol-2-yl)-6-methylpyridin-3-yl)acetamide] | 160 nM | 4610 nM | 1270 nM |  |
| CC(=O)N1CCC(c2cc3c(C(C)C)c(-c4cc(C)nc(C)c4)[nH]c3cc2F)CC1 [Example 829, 1-(4-(2-(2,6-dimethylpyridin-4-yl)-6-fluoro-3-isopropyl-1H-indol-5-yl)piperidin-1-yl)ethan-1-one] |  |  |  | IC50 (human TLR8; [4]): 63.4 nM; IC50 (human TLR9; [5]): 3070 nM; IC50 (human TLR7; [6]): 17.5 nM |
| Cc1cc(-c2[nH]c3ccc(C4CCN(CC5CCC5)CC4)cc3c2C(C)C)cc(C)n1 [Example 467, 5-(1-(cyclobutylmethyl)piperidin-4-yl)-2-(2,6-dimethylpyridin-4-yl)-3-isopropyl-1H-indole] | 5.8 nM | 155 nM | 2.5 nM |  |
| CC(C)c1c(-c2ccnc(F)c2)[nH]c2ccc(C3CCN(C4CCN(C)CC4)CC3)cc12 [Example 523, 2-(2-fluoropyridin-4-yl)-3-isopropyl-5-(1′-methyl-[1,4′-bipiperidin]-4-yl)-1H-indole] | 25.5 nM | 503 nM | 25.8 nM |  |
| CCc1c(-c2ccnc(C)c2)[nH]c2ccc(C3CCN(C(=O)C4CNC4)CC3)cc12 [Example 630, azetidin-3-yl (4-(3-ethyl-2-(2-methylpyridin-4-yl)-1H-indol-5-yl)piperidin-1-yl)methanone] | 40.2 nM | 333 nM | 70.4 nM |  |
| Cc1cc(-c2[nH]c3ccc(C4CCN(C(=O)CNC5(C)CCOCC5)CC4)cc3c2C(C)C)cc(C)n1 [Example 374, 1-(4-(2-(2,6-dimethylpyridin-4-yl)-3-isopropyl-1H-indol-5-yl)piperidin-1-yl)-2-((4-methyltetrahydro-2H-pyran-4-yl)amino)ethan-1-one] |  |  | 5.6 nM | IC50 (human TLR8; [7]): 21.4 nM; IC50 (human TLR9; [8]): 548 nM |
| Cc1cc(-c2[nH]c3ccc(C4CCNCC4)cc3c2C(C)C)cc(N)n1 [Example 12, 4-(3-isopropyl-5-(piperidin-4-yl)-1H-indol-2-yl)-6-methylpyridin-2-amine] | 39.7 nM | 362 nM | 19.8 nM |  |
| CC(C)c1c(-c2ccnc(N)c2)[nH]c2ccc(C3CCN(C(=O)C4CCNCC4)CC3)cc12 [Example 819, (4-(2-(2-aminopyridin-4-yl)-3-isopropyl-1H-indol-5-yl)piperidin-1-yl)(piperidin-4-yl)methanone] |  |  |  | IC50 (human TLR8; [4]): 588 nM; IC50 (human TLR9; [5]): 712 nM; IC50 (human TLR7; [6]): 415 nM |
| CNCC(=O)N1CCC(c2ccc3[nH]c(-c4cc(C)nc(C)c4F)c(C(C)C)c3c2)CC1 [Example 622, 1-(4-(2-(3-fluoro-2,6-dimethylpyridin-4-yl)-3-isopropyl-1H-indol-5-yl)piperidin-1-yl)-2-(methylamino)ethan-1-one] | 6.1 nM | 4010 nM | 1.2 nM |  |
| Cc1cc(-c2[nH]c3ccc(C4CCN(C(=O)CN(C)C5COC5)CC4)cc3c2C(C)C)cc(C)n1 [Example 416, 1-(4-(2-(2,6-dimethylpyridin-4-yl)-3-isopropyl-1H-indol-5-yl)piperidin-1-yl)-2-(methyl(oxetan-3-yl)amino)ethan-1-one] | 49.7 nM | 4760 nM | 4.5 nM |  |
